Source: patent US12616761B2, “CXCR4-targeting compounds” (PROVINCIAL HEALTH SERVICES AUTHORITY, priority 2020, dated 2026)
Like-named read-outs stand apart in the source and are kept apart here. Positions of bridges follow the written chain, without caps; N, C: chain ends. Non-standard residues stand in square brackets, D forms with d. Residues, ends and D or L forms follow the SMILES beside them. 2Nal = N[C@@H](Cc1ccc2ccccc2c1)C(=O)O; Lys(iPr) = CC(C)NCCCC[C@H](N)C(=O)O; hTyr = N[C@@H](CCc1ccc(O)cc1)C(=O)O

Columns and labels:
[1] = system: small cell lung cancer; details: small cell lung cancer patients; cited from earlier work
[2] = system: non-Hodgkin lymphoma, renal cell carcinoma, lung cancer, colorectal cancer, and breast cancer xenograft models; details: colorectal and breast cancer xenografts; cited from earlier work
[3] = molecular target: T1, CXCR4 (Homo sapiens, UniProt P61073); details: read-out: IC50, block of SDF-1α binding to CXCR4; cited from earlier work
T1 construct: expressed in transfected cells; host or cells: CHO:CXCR4 cells (gift from Drs. David McDermott and Xiaoyuan Chen, NIH)

[4] = molecular target: T1, CXCR4; assay: Competitive binding assay: [125I]SDF-1α displacement on CHO:CXCR4 cells; details: [125I]SDF-1α competition on CHO:CXCR4 cells; given as ranges; read-out: IC50 (nM), Binding Affinity to CXCR4
Experimental: The Z138 mantle cell lymphoma cell line was given by Dr. Christian Steidl (BC Cancer) as a gift. The CHO:CXCR4 cell line was given by Drs. David McDermott and Xiaoyuan Chen (National Institutes of Health) as a gift. The cell line was cultured in a 5% CO2 atmosphere at 37° C. in a humidified incubator. The Z138 cells were incubated with IMDM medium (Life Technologies Corporations) and the CHO:CXCR4 cells were incubated with F12K medium (Life Technologies Corporations), both of which were supplemented with 10% fetal bovine serum (Sigma-Aldrich), 100 I.U./mL penicillin, and 100 μg/mL streptomycin (Penicillin-Streptomycin Solution).
CHO:CXCR4 cells were seeded at a density of 1×10^5 cells/well in 24-well poly-D-lysine coated plates (Corning BioCoat) and incubated with [^1251]SDF-1α (0.01 nM, PerkinElmer) and competing nonradioactive ligands ([…]). The cells, radioligand, and competing peptides were incubated for 1 h at 27° C. with moderate shaking. Following the incubation period, the supernatant was aspirated, followed by three washes with 1 mL of ice-cold PBS. Cells were harvested with 200 μL of trypsin and counted on a y counter. Data were plotted in GraphPad Prism 7 to determine IC50 values (GraphPad Software, Inc., La Jolla, CA). The values are reported as mean±standard deviation.

T1 sequence (P61073 whole entry): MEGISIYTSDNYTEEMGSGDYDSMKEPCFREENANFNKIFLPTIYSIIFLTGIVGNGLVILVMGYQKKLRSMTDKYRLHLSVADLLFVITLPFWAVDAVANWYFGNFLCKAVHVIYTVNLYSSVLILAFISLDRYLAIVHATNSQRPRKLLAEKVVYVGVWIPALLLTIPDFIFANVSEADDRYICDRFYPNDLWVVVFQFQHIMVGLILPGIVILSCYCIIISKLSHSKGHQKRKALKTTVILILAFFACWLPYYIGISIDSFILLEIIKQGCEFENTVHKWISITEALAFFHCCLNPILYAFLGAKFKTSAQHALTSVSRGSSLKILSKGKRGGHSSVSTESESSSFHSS

Compound | IC50 [4] [nM] | further results
cyclo[Phe-Tyr-Lys(iPr)-D-Arg-2-Nal-Gly-D-Glu]-Lys(iPr)-NH2 [LY2510924] |  | treatment efficacy of carboplatin/etoposide chemotherapy [1]: failed to improve treatment efficacy; growth of xenograft models [2]: able to inhibit growth; IC50 [3]: 0.079 nM
CC(=O)NCCCC[C@@H]1NC(=O)CC[C@H](C(=O)N[C@@H](CCCCNC(C)C)C(N)=O)NC(=O)CNC(=O)[C@H](Cc2ccc3ccccc3c2)NC(=O)[C@@H](CCCNC(=N)N)NC(=O)[C@H](CCCCNC(C)C)NC(=O)[C@H](Cc2ccc(O)cc2)NC1=O [cyclo[Lys(Ac)-Tyr-Lys(iPr)-D-Arg-2Nal-Gly-D-Glu]-Lys(iPr)] (K(Ac)Y[Lys(iPr)][dR][2Nal]G[dE][Lys(iPr)]-NH2; lactam N-7) | 1 to 10 | 
CC(C)NCCCC[C@H](NC(=O)[C@H]1CCC(=O)N[C@@H](Cc2ccccc2)C(=O)N[C@H](Cc2ccc(O)cc2)C(=O)N[C@@H](CCCCNC(C)C)C(=O)N[C@H](CCCNC(=N)N)C(=O)N[C@@H](Cc2ccc3ccccc3c2)C(=O)N[C@H](C)C(=O)N1)C(N)=O [cyclo[Phe-D-Tyr-Lys(iPr)-DArg-2Nal-D-Ala-D-Glu]-Lys(iPr)] (F[dY][Lys(iPr)][dR][2Nal][dA][dE][Lys(iPr)]-NH2; lactam N-7) | 50 to 100 | 
CC(C)NCCCC[C@H](NC(=O)[C@H]1CCC(=O)N[C@@H](Cc2ccccc2)C(=O)N[C@@H](CCc2ccc(O)cc2)C(=O)N[C@@H](CCCCNC(C)C)C(=O)N[C@H](CCCNC(=N)N)C(=O)N[C@@H](Cc2ccc3ccccc3c2)C(=O)N[C@H](C)C(=O)N1)C(N)=O [cyclo[Phe-hTyr-Lys(iPr)-D-Arg-2-Nal-D-Ala-D-Glu]-Lys(iPr)] (F[hTyr][Lys(iPr)][dR][2Nal][dA][dE][Lys(iPr)]-NH2; lactam N-7) | 50 to 100 | 
CC(=O)NCCCC[C@@H]1NC(=O)CC[C@H](C(=O)N[C@@H](CCCCNC(C)C)C(N)=O)NC(=O)[C@@H](C)NC(=O)[C@H](Cc2ccc3ccccc3c2)NC(=O)[C@@H](CCCNC(=N)N)NC(=O)[C@H](CCCCNC(C)C)NC(=O)[C@H](CCC(=O)O)NC1=O [cyclo[Lys(Ac)-Glu-Lys(iPr)-D-Arg-2Nal-D-Ala-D-Glu]-Lys(iPr)] (K(Ac)E[Lys(iPr)][dR][2Nal][dA][dE][Lys(iPr)]-NH2; lactam N-7) | 50 to 100 | 
CC(=O)NCCCC[C@@H]1NC(=O)CC[C@H](C(=O)N[C@@H](CCCCNC(C)C)C(N)=O)NC(=O)[C@@H](C)NC(=O)[C@H](Cc2ccc3ccccc3c2)NC(=O)[C@@H](CCCNC(=N)N)NC(=O)[C@H](CCCCNC(C)C)NC(=O)[C@H](CCC(N)=O)NC1=O [cyclo[Lys(Ac)-Gln-Lys(iPr)-D-Arg-2Nal-D-Ala-D-Glu]-Lys(iPr)] (K(Ac)Q[Lys(iPr)][dR][2Nal][dA][dE][Lys(iPr)]-NH2; lactam N-7) | 10 to 50 | 
CC(C)C[C@H]1NC(=O)[C@H](Cc2ccc3ccccc3c2)NC(=O)[C@@H](CCCNC(=N)N)NC(=O)[C@H](CCCCNC(C)C)NC(=O)[C@H](Cc2ccc(O)cc2)NC(=O)[C@H](Cc2ccccc2)NC(=O)CC[C@H](C(=O)N[C@@H](CCCCNC(C)C)C(N)=O)NC1=O [cyclo[Phe-Tyr-Lys(iPr)-D-Arg-2Nal-D-Leu-D-Glu]-Lys(iPr)] (FY[Lys(iPr)][dR][2Nal][dL][dE][Lys(iPr)]-NH2; lactam N-7) | 50 to 100 | 
